Read-outs that look alike come from different tables or passages of the source.
Target: T1, human α7 nicotinic acetylcholine receptor (HEK cell line stably expressing human RIC-3 and human α7) (Homo sapiens, UniProt P36544)
T1 construct: host or cells: HEK cell line (PrecisION hnAChR α7/RIC-3)
Experiment: Automated patch-clamp electrophysiology functional assay (Assay A), IonFlux HT, whole-cell population patch
Format: cell-based
Protocol: The α7 nAChR positive allosteric modulator (PAM) activity of the present compounds may be tested using assays known in the art. […] The assay was performed using the IonFlux HT in a whole-cell, population patch configuration. See Golden et al. Assay Drug Dev. Technol. […] The compounds were assessed for their ability to modulate the function of the human 7 nAChR stably expressed in a HEK cell line both in the presence, and in the absence of the natural 7 agonist acetylcholine. By performing a series of such measurements at different concentrations, the effective concentration of the 7 nAChR PAMs (EC50) was determined. See Spencer et al. Assay Drug Dev. Technol.
Direct activation of α7 (agonism), and potentiation of acetylcholine-evoked 7 currents was determined as follows:
Automated patch-clamp electrophysiology was performed using the IonFlux HT (Fluxion Biosciences Inc., San Francisco, Calif.) in the whole-cell, population patch configuration. Test compounds were assessed for their ability to modulate the function of the α7 nicotinic acetylcholine receptor both in the presence, and in the absence of the natural α7 agonist acetylcholine. […] Immediately prior to assay, cells were detached by first aspirating growth media, rinsing with Dulbecco's phosphate buffered saline, and then adding 10 mL of Accutase (Innovative Cell Technologies, San Diego, Calif.) to the flask and then incubating at 37° C. for 5 minutes. Detached cells were then recovered by the addition of 40 mL of CHO-serum-free media supplemented with 25 mM HEPES, and rocked gently in a 50 mL conical tube for 20 minutes prior to patch-clamp assay. After recovery, cells were pelleted by centrifugation at 1,000 RPM for 1 minute in a compact bench top centrifuge; recovery media was aspirated and cells were resuspended in external recording solution (150 mM NaCl, 5 mM KCl, 2 mM CaCl2), 1 mM MgCl2, 10 mM HEPES, 12 mM dextrose) to a density of 5.0×10^6 cells/mL. The cell suspension was added to the cell inlet wells on an IonFlux HT population patch plate which had previously been rinsed and primed with deionized H2O. Test compounds were serially diluted in DMSO and then resuspended to the final test concentration in external recording solution, with, or without 40 μM acetylcholine added to the external recording solution; test compounds were then transferred to the IonFlux HT population patch plate. Internal recording solution (110 mM TrisPO4, 28 mM TrisBase, 0.1 mM CaCl2, 2 mM MgCl2, 11 mM EGTA, 4 mM MgATP) was added to the internal recording solution inlet wells on the IonFlux HT patch plate previously loaded with cells and test compounds, and the plate loaded into the IonFlux HT instrument. A protocol was executed on the IonFlux HT to trap the cells, break into the cells, and establish the whole-cell recording configuration; cells were voltage-clamped at a holding potential of −60 mV for the duration of the experiment, all experiments were conducted at room temperature, and the IonFlux HT injection pressure was 8 psi for solution applications. Upon establishing the whole-cell configuration, external recording solution was perfused into the recording chambers for 120 seconds and then 40 μM acetylcholine was applied for 1 second and immediately washed off with external recording solution for 60 seconds. The 40 μM acetylcholine-evoked α7 current served as the current response to which subsequent test compound effects, in the presence, or in the absence of 40 μM acetylcholine would be quantified relative to. Next, test compounds were evaluated at multiple concentrations for their ability to induce, or modulate 7 current responses; three concentrations of test compound were evaluated in ascending dose fashion per recording.

[1] = HEK cells expressing human α7/RIC-3, test compound with or without 40 μM acetylcholine, holding potential −60 mV, room temperature, read-out: α7 nAChR Potency
[2] = automated patch-clamp electrophysiology functional assay (Assay A), read-out: α7 nAChR EC50

T1 sequence (P36544 23-502): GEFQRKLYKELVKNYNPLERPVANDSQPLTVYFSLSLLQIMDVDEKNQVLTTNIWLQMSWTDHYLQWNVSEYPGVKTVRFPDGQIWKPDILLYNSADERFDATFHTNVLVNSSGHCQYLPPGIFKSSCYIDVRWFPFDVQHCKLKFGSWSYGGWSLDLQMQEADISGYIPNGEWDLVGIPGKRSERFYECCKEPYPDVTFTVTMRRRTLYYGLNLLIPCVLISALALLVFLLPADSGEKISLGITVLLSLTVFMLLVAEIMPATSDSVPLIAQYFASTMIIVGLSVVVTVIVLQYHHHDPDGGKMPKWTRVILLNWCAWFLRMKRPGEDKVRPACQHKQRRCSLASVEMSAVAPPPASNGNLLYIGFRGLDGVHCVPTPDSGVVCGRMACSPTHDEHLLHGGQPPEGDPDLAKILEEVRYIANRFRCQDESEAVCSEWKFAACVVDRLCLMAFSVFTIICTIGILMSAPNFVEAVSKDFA

SMILES	EC50 [1] [nM]	EC50 [2] [nM]
Cc1ccc(C)c(-c2noc([C@@H]3C(F)(F)C34CCN(S(C)(=O)=O)CC4)n2)c1 (stereo in doubt) [Example 32, 2-[3-(2,5-Dimethylphenyl)-1,2,4-oxadiazol-5-yl]-1,1-difluoro-6-(methylsulfonyl)-6-azaspiro[2.5]octane]	500 to 5000	910
NS(=O)(=O)N1CCC2(CC1)[C@H](c1ccn(-c3ccc(F)cc3C(F)(F)F)n1)C2(F)F (stereo in doubt) [Example 36, 1,1-Difluoro-2-{1-[4-fluoro-2-(trifluoromethyl)phenyl]-1H-pyrazol-3-yl}-6-azaspiro[2.5]octane-6-sulfonamide]	500 to 5000	890
NS(=O)(=O)N1CCC2(CC1)[C@H](c1nsc(-c3ccc(F)cc3C(F)(F)F)n1)C2(F)F (stereo in doubt) [Example 37, 1,1-Difluoro-2-{5-[4-fluoro-2-(trifluoromethyl)phenyl]-1,2,4-thiadiazol-3-yl}-6-azaspiro[2.5]octane-6-sulfonamide]	500 to 5000	1200
NS(=O)(=O)N1CCC2(CC2c2nc(-c3cccc(OCC(F)(F)F)c3)no2)C(F)(F)C1 (stereo not shown) [Example 3, 4,4-Difluoro-1-{3-[3-(2,2,2-trifluoroethoxy)phenyl]-1,2,4-oxadiazol-5-yl}-6-azaspiro[2.5]octane-6-sulfonamide]	500 to 5000	1300
NS(=O)(=O)N1CCC2(CC1)C[C@H]2c1nc(-c2ccc(F)cc2C(F)(F)F)no1 [Example 5, (1R)-1-{3-[4-Fluoro-2-(trifluoromethyl)phenyl]-1,2,4-oxadiazol-5-yl}-6-azaspiro[2.5]octane-6-sulfonamide]	500 to 5000	1200
NS(=O)(=O)N1CCC2(CC1)C[C@H]2c1csc(-c2cccc(OC(F)(F)F)c2)n1 [Example 7, (1R)-1-{2-[3-(Trifluoromethoxy)phenyl]-1,3-thiazol-4-yl}-6-azaspiro[2.5]octane-6-sulfonamide]	500 to 5000	1100
NS(=O)(=O)N1CCC2(CC1)[C@H](c1nnc(-c3ccnn3C3CC3)o1)C2(F)F [Example 16, (2R)-2-[5-(1-Cyclopropyl-1H-pyrazol-5-yl)-1,3,4-oxadiazol-2-yl]-1,1-difluoro-6-azaspiro[2.5]octane-6-sulfonamide]	100 to 500	450
NS(=O)(=O)N1CCC2(CC1)[C@H](c1nnc(-c3ccnn3C3CC3)s1)C2(F)F [Example 17, (2S)-2-[5-(1-Cyclopropyl-1H-pyrazol-5-yl)-1,3,4-thiadiazol-2-yl]-1,1-difluoro-6-azaspiro[2.5]octane-6-sulfonamide]	500 to 5000	550
NS(=O)(=O)N1CCC2(CC1)[C@H](c1noc(-c3cnn4c3CSCC4)n1)C2(F)F [Example 18, (2R)-2-[5-(6,7-Dihydro-4H-pyrazolo[5,1-c][1,4]thiazin-3-yl)-1,2,4-oxadiazol-3-yl]-1,1-difluoro-6-azaspiro[2.5]octane-6-sulfonamide]	500 to 5000	800
Cn1cc(-c2nc([C@@H]3C(F)(F)C34CCN(S(N)(=O)=O)CC4)no2)c(C(F)(F)F)n1 [Example 19, (2R)-1,1-Difluoro-2-{5-[1-methyl-3-(trifluoromethyl)-1H-pyrazol-4-yl]-1,2,4-oxadiazol-3-yl}-6-azaspiro[2.5]octane-6-sulfonamide]	100 to 500	240

Now from value to molecule:

EC50 [1] [nM]	EC50 [2] [nM]	SMILES
< 100	98	Cc1ccc(C(F)(F)F)cc1-c1nc([C@@H]2CC23CCN(S(N)(=O)=O)CC3)no1 [Example 1, (1R)-1-{5-[2-Methyl-5-(trifluoromethyl)phenyl]-1,2,4-oxadiazol-3-yl}-6-azaspiro[2.5]octane-6-sulfonamide]
< 100	82	Cc1ccc(C)c(-c2nc([C@@H]3CC34CCN(S(N)(=O)=O)CC4)no2)c1 [Example 2, (1R)-1-[5-(2,5-Dimethylphenyl)-1,2,4-oxadiazol-3-yl]-6-azaspiro[2.5]octane-6-sulfonamide]
100 to 500	350	NS(=O)(=O)N1CCC2(CC2c2nc(-c3cccc(OC(F)F)c3)no2)C(F)C1 (stereo not shown) [Example 4, 1-{3-[3-(Difluoromethoxy)phenyl]-1,2,4-oxadiazol-5-yl}-4-fluoro-6-azaspiro[2.5]octane-6-sulfonamide]
100 to 500	280	CC1CN(S(N)(=O)=O)CCC12CC2c1nc(-c2ccc(F)cc2C(F)(F)F)no1 (stereo not shown) [Example 6, 1-{3-[4-Fluoro-2-(trifluoromethyl)phenyl]-1,2,4-oxadiazol-5-yl}-4-methyl-6-azaspiro[2.5]octane-6-sulfonamide]
100 to 500	230	Cc1cnn(CC(F)(F)F)c1-c1nc([C@@H]2CC23CCN(S(N)(=O)=O)CC3)no1 [Example 8, (1R)-1-{5-[4-Methyl-1-(2,2,2-trifluoroethyl)-1H-pyrazol-5-yl]-1,2,4-oxadiazol-3-yl}-6-azaspiro[2.5]octane-6-sulfonamide]
< 100	75	Cc1cnn(C)c1-c1nc([C@@H]2C(F)(F)C23CCN(S(N)(=O)=O)CC3)no1 [Example 9, (2R)-2-[5-(1,4-Dimethyl-1H-pyrazol-5-yl)-1,2,4-oxadiazol-3-yl]-1,1-difluoro-6-azaspiro[2.5]octane-6-sulfonamide]
100 to 500	220	NS(=O)(=O)N1CCC2(CC1)[C@H](c1noc(-c3ccnc(OC(F)F)c3)n1)C2(F)F [Example 10, (2R)-2-{5-[2-(Difluoromethoxy)pyridin-4-yl]-1,2,4-oxadiazol-3-yl}-1,1-difluoro-6-azaspiro[2.5]octane-6-sulfonamide]
< 100	58	NS(=O)(=O)N1CCC2(CC1)[C@H](c1nc(-c3conc3C3CC3)no1)C2(F)F [Example 11, (2R)-2-[3-(3-Cyclopropylisoxazol-4-yl)-1,2,4-oxadiazol-5-yl]-1,1-difluoro-6-azaspiro[2.5]octane-6-sulfonamide]
100 to 500	220	NS(=O)(=O)N1CCC2(CC1)[C@H](c1nc(-c3ccnn3CC(F)(F)F)no1)C2(F)F [Example 12, (2R)-1,1-Difluoro-2-{3-[1-(2,2,2-trifluoroethyl)-1H-pyrazol-5-yl]-1,2,4-oxadiazol-5-yl}-6-azaspiro[2.5]octane-6-sulfonamide]
< 100	73	Cc1cnc(OC(F)F)cc1-c1nc([C@@H]2C(F)(F)C23CCN(S(N)(=O)=O)CC3)no1 [Example 13, (2R)-2-{5-[2-(Difluoromethoxy)-5-methylpyridin-4-yl]-1,2,4-oxadiazol-3-yl}-1,1-difluoro-6-azaspiro[2.5]octane-6-sulfonamide]
< 100	49	Cn1ncc(C(F)(F)F)c1-c1nc([C@@H]2C(F)(F)C23CCN(S(N)(=O)=O)CC3)no1 [Example 14, (2R)-1,1-Difluoro-2-{5-[1-methyl-4-(trifluoromethyl)-1H-pyrazol-5-yl]-1,2,4-oxadiazol-3-yl}-6-azaspiro[2.5]octane-6-sulfonamide]
100 to 500	330	NS(=O)(=O)N1CCC2(CC1)C[C@H]2c1cnn(-c2cccc(OC(F)(F)F)c2)c1 [Example 15, (1R)-1-{1-[3-(Trifluoromethoxy)phenyl]-1H-pyrazol-4-yl}-6-azaspiro[2.5]octane-6-sulfonamide]
< 100	98	Cn1nc2c(c1-c1nc([C@@H]3C(F)(F)C34CCN(S(N)(=O)=O)CC4)no1)CCC2 [Example 20, (2R)-1,1-Difluoro-2-[5-(2-methyl-2,4,5,6-tetrahydrocyclopenta[c]pyrazol-3-yl)-1,2,4-oxadiazol-3-yl]-6-azaspiro[2.5]octane-6-sulfonamide]

— patent US11332463B2, “Spiropiperidine allosteric modulators of nicotinic acetylcholine receptors” (Merck Sharp & Dohme Corp., priority 2018, dated 2022)
